Assay results reported in patent US9708336B2, “Metallo-beta-lactamase inhibitors” (priority 2014, dated 2017).
Where two headings read alike, the source gives them in different places.

Tests used:
VIM-1 = VIM-1 (Pseudomonas aeruginosa (strain ATCC 15692 / DSM 22644 / CIP 104116 / JCM 14847 / LMG 12228 / 1C / PRS 101 / PAO1), UniProt A0A0F7KYQ8); assay: Enzyme activity: determination of IC50, fluorescence assay with CCF2-FA substrate (VIM-1); assay type: biochemical; settings: CCF2-FA substrate
IMP-1 = IMP-1 (Serratia marcescens, UniProt P52699); assay: biochemical; assay type: biochemical; settings: IMP-1 enzyme, CCF2-FA substrate; read-out: IMP-1 IC50
Chain of IMP-1 (P52699 whole entry, looked up): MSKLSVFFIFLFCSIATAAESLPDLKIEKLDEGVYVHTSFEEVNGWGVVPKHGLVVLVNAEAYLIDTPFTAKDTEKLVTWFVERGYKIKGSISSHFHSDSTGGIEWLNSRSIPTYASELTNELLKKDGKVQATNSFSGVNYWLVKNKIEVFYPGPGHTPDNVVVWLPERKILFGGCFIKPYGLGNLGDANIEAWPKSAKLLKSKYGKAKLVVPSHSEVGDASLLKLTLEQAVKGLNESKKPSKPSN

NDM-1 = NDM-1 (Klebsiella pneumoniae, UniProt C7C422); assay: biochemical; assay type: biochemical; settings: NDM-1 enzyme, CCF2-FA substrate; read-out: NDM-1 IC50
Chain of NDM-1 (C7C422 whole entry, looked up, species assumed): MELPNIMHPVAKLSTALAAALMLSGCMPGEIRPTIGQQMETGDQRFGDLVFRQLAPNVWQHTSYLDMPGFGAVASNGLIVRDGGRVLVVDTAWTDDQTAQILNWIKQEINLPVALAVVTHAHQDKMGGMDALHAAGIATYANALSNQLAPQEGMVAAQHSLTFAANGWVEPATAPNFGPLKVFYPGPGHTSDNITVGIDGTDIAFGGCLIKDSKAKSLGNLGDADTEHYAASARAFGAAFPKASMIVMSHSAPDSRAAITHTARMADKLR

[1] = system: Serratia marcescens expressing IMP-1 (CL5741); assay: Antibiotic potentiation activity: synergistic concentration (MITC95) with imipenem, OD600 growth; assay type: cell-based; settings: Serratia marcescens CL5741 (IMP-1), 95% growth inhibition
Method in brief: (§1)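 Bacteria were grown overnight on agar at 35 °C, diluted 1:100 from saline into 1.1× CAMHB, then given compound with or without imipenem (4 μg/ml in assay, optionally 1 μg/ml). Endpoint: absorbance at 22–24 h.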

[2] = system: Escherichia coli expressing NDM-1 (CLB30016); assay: as above; assay type: cell-based; settings: (CLB30016, NDM-1), 95% growth inhibition
Method in brief: as §1

[3] = system: Klebsiella pneumoniae expressing VIM-1 (IHMA599644); assay: as above; assay type: cell-based; settings: Klebsiella pneumoniae IHMA599644 (VIM-1), 95% growth inhibition
Method in brief: as §1

[4] = VIM-1 enzyme, read-out: VIM-1 IC50

Compound	IC50 (VIM-1; VIM-1 IC50, VIM-1 enzyme) [nM]	IC50 (IMP-1) [nM]	IC50 (NDM-1) [nM]	Serratia marcescens MITC95 [1] [µM]	Escherichia coli MITC95 [2] [µM]	Klebsiella pneumoniae MITC95 [3] [µM]	IC50 (VIM-1; [4]) [nM]
NS(=O)(=O)c1c(C(F)(F)F)ccc(-c2cnc(N3CCNCC3)nc2)c1-c1nnn[nH]1 [Example 706, 3-(2-piperazin-1-ylpyrimidin-5-yl)-2-(1H-tetrazol-5-yl)-6-(trifluoromethyl)benzenesulfon-amide]	0.632	12.4	4.52	6.25	3.125	1.563	–
NCCc1ccc(-c2ccc(C(F)(F)F)c(S(N)(=O)=O)c2-c2nnn[nH]2)cc1 [Example 707, 4′-(2-aminoethyl)-2-(1H-tetrazol-5-yl)-4-(trifluoromethyl)biphenyl-3-sulfonamide]	–	6.67	5.59	6.25	3.125	1.563	0.249
NS(=O)(=O)c1c(C(F)(F)F)ccc(-c2cnc3[nH]ccc3c2)c1-c1nnn[nH]1 [Example 708, 3-(1H-pyrrolo[2,3-b]pyridin-5-yl)-2-(1H-tetrazol-5-yl)-6-(trifluoromethyl)benzenesulfon-amide]	–	1.6	0.38	6.25	1.563	6.25	0.144
NS(=O)(=O)c1c(C(F)(F)F)ccc(-c2snc3ncccc23)c1-c1nnn[nH]1 [Example 709, 3-isothiazolo[3,4-b]pyridin-3-yl-2-(1H-tetrazol-5-yl)-6-(trifluoromethyl)benzenesulfon-amide]	–	16.4	6.58	25	6.25	6.25	0.289
NS(=O)(=O)c1c(C(F)(F)F)ccc(-c2cnn3ccccc23)c1-c1nnn[nH]1 [Example 710, 3-pyrazolo[1,5-a]pyridin-3-yl-2-(1H-tetrazol-5-yl)-6-(trifluoromethyl)benzenesulfon-amide]	0.168	2.08	0.89	6.25	6.25	12.5	–
NS(=O)(=O)c1c(C(F)(F)F)ccc(-c2cnc3ccoc3c2)c1-c1nnn[nH]1 [Example 711, 3-furo[3,2-b]pyridin-6-yl-2-(1H-tetrazol-5-yl)-6-(trifluoromethyl)benzenesulfon-amide]	–	3.54	1.01	12.5	6.25	6.25	0.224
NS(=O)(=O)c1c(C(F)(F)F)ccc(-c2cnc3ncccn23)c1-c1nnn[nH]1 [Example 712, 3-imidazo[1,2-a]pyrimidin-3-yl-2-(1H-tetrazol-5-yl)-6-(trifluoromethyl)benzenesulfon-amide]	13.6	126	58.7	100	25	50	–
NS(=O)(=O)c1c(C(F)(F)F)ccc(-c2ccc(C3CNCCO3)cc2)c1-c1nnn[nH]1 (stereo not drawn) [Example 713, 4′-morpholin-2-yl-2-(1H-tetrazol-5-yl)-4-(trifluoromethyl)biphenyl-3-sulfonamide]	–	3.54	3.27	6.25	3.125	3.125	0.819
Nc1cc(-c2ccc(C(F)(F)F)c(S(N)(=O)=O)c2-c2nnn[nH]2)cc(N)n1 [Example 714, 3-(2,6-diaminopyridin-4-yl)-2-(1H-tetrazol-5-yl)-6-(trifluoromethyl)benzenesulfon-amide]	0.799	31.7	5.05	12.5	1.563	3.125	–
NS(=O)(=O)c1c(C(F)(F)F)ccc(-c2ccc3c(c2)CNC3)c1-c1nnn[nH]1 [Example 715, 3-(2,3-dihydro-1H-isoindol-5-yl)-2-(1H-tetrazol-5-yl)-6-(trifluoromethyl)benzenesulfon-amide]	–	27.4	25.3	12.5	6.25	3.125	0.729
NS(=O)(=O)c1c(C(F)(F)F)ccc(-c2ccc(C3CCCN3)cc2)c1-c1nnn[nH]1 (stereo not drawn) [Example 716, 4′-pyrrolidin-2-yl-2-(1H-tetrazol-5-yl)-4-(trifluoromethyl)biphenyl-3-sulfonamide]	2.79	5.43	8.07	3.125	6.25	25	–
NS(=O)(=O)c1c(C(F)(F)F)ccc(-c2ccc(N3CCNCC3)cc2)c1-c1nnn[nH]1 [Example 717, 4′-piperazin-1-yl-2-(1H-tetrazol-5-yl)-4-(trifluoromethyl)biphenyl-3-sulfonamide]	–	2.62	1.64	3.125	1.563	3.125	0.598
NS(=O)(=O)c1c(C(F)(F)F)ccc(-c2ccc(CN3CCNCC3)cc2)c1-c1nnn[nH]1 [Example 718, 4′-(piperazin-1-ylmethyl)-2-(1H-tetrazol-5-yl)-4-(trifluoromethyl)biphenyl-3-sulfonamide]	–	2.4	1.51	6.25	12.5	25	1.73
NS(=O)(=O)c1c(C(F)(F)F)ccc(-c2ccc(OC3CNC3)cc2)c1-c1nnn[nH]1 [Example 719, 4′-(azetidin-3-yloxy)-2-(1H-tetrazol-5-yl)-4-(trifluoromethyl)biphenyl-3-sulfonamide]	0.553	3.68	3.04	3.125	3.125	3.125	–
NS(=O)(=O)c1c(C(F)(F)F)ccc(-c2ccc3c(c2)CNCC3)c1-c1nnn[nH]1 [Example 720, 3-(1,2,3,4-tetrahydroisoquinolin-7-yl)-2-(1H-tetrazol-5-yl)-6-(trifluoromethyl)benzenesulfon-amide]	–	16.1	3.04	12.5	6.25	3.125	1.04
NS(=O)(=O)c1c(C(F)(F)F)ccc(-c2ccc3c(c2)CCNC3)c1-c1nnn[nH]1 [Example 721, 3-(1,2,3,4-tetrahydroisoquinolin-6-yl)-2-(1H-tetrazol-5-yl)-6-(trifluoromethyl)benzenesulfon-amide]	–	9.18	3.02	6.25	6.25	1.563	0.807
NS(=O)(=O)c1c(C(F)(F)F)ccc(-c2cccc(C3CCNC3)c2)c1-c1nnn[nH]1 (stereo not drawn) [Example 722, 3′-pyrrolidin-3-yl-2-(1H-tetrazol-5-yl)-4-(trifluoromethyl)biphenyl-3-sulfonamide]	–	21.7	20.8	25	12.5	6.25	1.46
